Test results reported in publication PMC6522524 (Nature Communications, 2019).
“And” between values parts separate entries of the source, which are not always exact repeats. Equal values may be shown once. Read-outs that look alike come from different tables or passages of the source.

Legend:
[1] = target: T1, Cp149 (truncated HBV core protein) (Hepatitis B virus genotype D subtype ayw, UniProt P03146); test: biochemical; details: for Relative intensity, anti core-native gel, individual samples: Sample1-2
T1 construct: Cp149 (amino acids 1–149) is a truncated form of the HBV core protein; made in house; host or cells: Escherichia coli
T1 sequence (P03146 1-149): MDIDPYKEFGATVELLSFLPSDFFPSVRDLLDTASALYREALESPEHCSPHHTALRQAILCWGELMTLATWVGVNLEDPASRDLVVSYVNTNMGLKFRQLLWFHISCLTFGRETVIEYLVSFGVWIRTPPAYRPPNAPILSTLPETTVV

[2] = target: HBV core protein (pCDNA3-Core, Y118 wild-type) in Huh-7 cells (Hepatitis B virus genotype C, UniProt P0C6H6); test: cell-based; format: cell-based; details: for activity at 0.1 µM: Huh-7, Y118, 0.1 μM; for activity at 0.5 µM: Huh-7, Y118, 0.5 μM; for activity at 1 µM: Huh-7, Y118, 1 μM; for activity at 5 µM: Huh-7, Y118, 5 μM; for activity at 10 µM: Huh-7, Y118, 10 μM
HBV core protein (pCDNA3-Core, Y118 wild-type) in Huh-7 cells, sequence (P0C6H6 whole entry): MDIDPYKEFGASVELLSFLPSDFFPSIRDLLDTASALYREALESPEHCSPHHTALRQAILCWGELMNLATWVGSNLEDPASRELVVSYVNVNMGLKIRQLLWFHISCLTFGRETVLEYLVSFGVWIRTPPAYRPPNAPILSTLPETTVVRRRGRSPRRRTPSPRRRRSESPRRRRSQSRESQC

[3] = Sample1-3, read-out: Relative intensity (Folds), intracellular capsid, individual samples
[4] = read-out: Relative intensity (Folds), intracellular capsid, AVERAGE

CC1(CC(=O)O)CC(C2CCCCC2)=NO1 (racemic) [(RS)-2-(3-cyclohexyl-5-methyl-4,5-dihydroisoxazol-5-yl)acetic Acid]
Relative intensity, anti core-native gel, AVERAGE ([1]; Drug Concentration 0.1 μM): 0.9301
Relative intensity, anti core-native gel, individual samples ([1]; Drug Concentration 0.1 μM): 1.019 and 0.8411
Relative intensity, anti core-native gel, AVERAGE ([1]; Drug Concentration 0.2 μM): 1.003
Relative intensity, anti core-native gel, individual samples ([1]; Drug Concentration 0.2 μM): 1.033 and 0.9731
Relative intensity, anti core-native gel, AVERAGE ([1]; Drug Concentration 0.5 μM): 0.9877
Relative intensity, anti core-native gel, individual samples ([1]; Drug Concentration 0.5 μM): 0.9703 and 1.005
Relative intensity, anti core-native gel, AVERAGE ([1]; Drug Concentration 1 μM): 0.9712
Relative intensity, anti core-native gel, individual samples ([1]; Drug Concentration 1 μM): 1.074 and 0.8679
Relative intensity, anti core-native gel, AVERAGE ([1]; Drug Concentration 2 μM): 0.9867
Relative intensity, anti core-native gel, individual samples ([1]; Drug Concentration 2 μM): 1.072 and 0.9014
Relative intensity, anti core-native gel, AVERAGE ([1]; Drug Concentration 5 μM): 0.9809
Relative intensity, anti core-native gel, individual samples ([1]; Drug Concentration 5 μM): 1.098 and 0.8634
Relative intensity, anti core-native gel, AVERAGE ([1]; Drug Concentration 10 μM): 1.051
Relative intensity, anti core-native gel, individual samples ([1]; Drug Concentration 10 μM): 1.175 and 0.9277

Cc1cc(C2CCCCC2)[nH]c(=O)c1 [Compound 2, 6-Cyclohexyl-4-methyl pyridin-2(1H)-one]
activity at 0.1 µM [2, 3]: 94%
activity at 0.1 µM [2, 4]: 96.2%
activity at 0.5 µM [2, 3]: 96.4%
activity at 0.5 µM [2, 4]: 98.6%
activity at 1 µM [2, 3]: 90.2%
activity at 1 µM [2, 4]: 101%
activity at 5 µM [2, 3]: 85.6%
activity at 5 µM [2, 4]: 95.8%
activity at 10 µM [2, 3]: 87.2%
activity at 10 µM [2, 4]: 99.5%
HBV capsid assembly inhibitory activity in vivo (Fig. 3d) ([2]; Huh-7, pCDNA3-Core): blocked its HBV capsid assembly inhibitory activity
Relative intensity (Folds), intracellular capsid, individual samples ([2]; Y118, 0.1 μM, Sample1-3, 0.1 µM): 1.008 Folds and 0.9391 Folds
Relative intensity (Folds), intracellular capsid, individual samples ([2]; Y118, 0.5 μM, Sample1-3, 0.5 µM): 1.032 Folds and 0.9631 Folds
Relative intensity (Folds), intracellular capsid, individual samples ([2]; Y118, 1 μM, Sample1-3, 1 µM): 1.06 Folds and 1.081 Folds
Relative intensity (Folds), intracellular capsid, individual samples ([2]; Y118, 5 μM, Sample1-3, 5 µM): 1.004 Folds and 1.015 Folds
Relative intensity (Folds), intracellular capsid, individual samples ([2]; Y118, 10 μM, Sample1-3, 10 µM): 1.04 Folds and 1.071 Folds
HBV capsid assembly inhibitory activity in vitro (Supplementary Fig. 8) ([1]; Cp149): blocked its HBV capsid assembly inhibitory activity
Relative intensity, anti core-native gel, AVERAGE ([1]; Drug Concentration 0.1 μM): 0.9832
Relative intensity, anti core-native gel, individual samples ([1]; Drug Concentration 0.1 μM): 0.9055 and 1.061
Relative intensity, anti core-native gel, AVERAGE ([1]; Drug Concentration 0.2 μM): 1.01
Relative intensity, anti core-native gel, individual samples ([1]; Drug Concentration 0.2 μM): 0.8978 and 1.1231
Relative intensity, anti core-native gel, AVERAGE ([1]; Drug Concentration 0.5 μM): 0.9545
Relative intensity, anti core-native gel, individual samples ([1]; Drug Concentration 0.5 μM): 0.9595 and 0.9494
Relative intensity, anti core-native gel, AVERAGE ([1]; Drug Concentration 1 μM): 0.9058
Relative intensity, anti core-native gel, individual samples ([1]; Drug Concentration 1 μM): 0.865 and 0.9466
Relative intensity, anti core-native gel, AVERAGE ([1]; Drug Concentration 2 μM): 0.9815
Relative intensity, anti core-native gel, individual samples ([1]; Drug Concentration 2 μM): 0.9391 and 1.024
Relative intensity, anti core-native gel, AVERAGE ([1]; Drug Concentration 5 μM): 0.9702
Relative intensity, anti core-native gel, individual samples ([1]; Drug Concentration 5 μM): 0.8581 and 1.082
Relative intensity, anti core-native gel, AVERAGE ([1]; Drug Concentration 10 μM): 0.8707
Relative intensity, anti core-native gel, individual samples ([1]; Drug Concentration 10 μM): 0.8904 and 0.851
